In patent publication US20190352297A1, “SELECTIVE AURORA A KINASE INHIBITORS” (UNIVERSITAT BERN, priority 2017, published 2019):

Assays:
pThr288 Aurora A = test: Phosphorylation of Aurora A Thr288 in cells; type: cell-based, human; conditions: cells; read-out: cellular IC50 (pT288), phosphorylation of Aurora A Thr288
Description: HeLa Kyoto cells were cultured in high-glucose DMEM with GlutaMAX (Life Technologies) media supplemented with 10% fetal calf serum (FCS) in a humidified 5% CO2 incubator at 37° C. For plasmid transfections, cells were seeded at 80-90% confluence. 4 μg of plasmid DNA in 100 μl OptiMEM and 4 μl of Lipofectamine 2000 (Life Technologies) in 100 μl OptiMEM were incubated in parallel for 5 minutes, mixed for 20 minutes and added to each well. All Aurora A clones were constructed using full-length Aurora A as a template with appropriate PCR primer pairs. […] GFP-Aurora AR137A and GFP-Aurora AW277A were engineered using a site directed mutagenesis kit (Agilent Technologies, no. 210515) with appropriate primers. For determining the mitotic index and the chromosome misalignment phenotype, cells were incubated with various concentrations of compounds for 20 h before analysis. Cells were likewise treated with 0.25 μM MLN8237 (Selleckchem, no. S1133) or 5 μM ZM447439 (Selleckchem, no. S1103). For flow cytometry analysis, 50 nM […] and 2.5 μM ZM447439 were used. For rescue experiments, HeLa Kyoto cells were first transfected with GFP-Aurora A, GFP-Aurora AR137A or GFP-Aurora AW277A for 20 h, followed by incubation with 9 for another 20 h before cells were fixed with cold methanol and stained. To assess the impact of compound 9 on cell cycle progression, DNA content was analyzed after propidium iodide staining using FACS (BD Accuri C6 flow cytometer).
For immunofluorescence, cells were fixed in cold methanol, washed in PBT (PBS supplemented with 0.05% Tween-20) and stained with the following primary antibodies: 1:200 rabbit anti-pT288 (Cell Signaling, C39D8), 1:200 rabbit anti-pH3S10 (Cell Signaling, D2C8), 1:500 mouse anti-α-tubulin (Transduction Laboratories, 612709), 1:300 mouse anti-GFP (MAB3580, Millipore), 1:200 anti-TPX2 (Santa Cruz Biotechnology, sc-32863), anti-Aurora A (Invitrogen, 458900). Secondary antibodies were anti-mouse conjugated to Alexa488 or Alexa568, as well as anti-rabbit conjugated to Alexa488 or Alexa568, all used at 1:500 (Invitrogen). […]

Aurora A / TPX2 (1-43) = target: T1, Aurora A / TPX2 (1-43) (Homo sapiens, UniProt O14965); test: Microscale thermophoresis, Aurora A binding to labeled TPX2 1-43; conditions: excess 9, three independent measurements
T1 construct: human Aurora A kinase domain (residues 122-403 in the pET24-d vector); His-tag (cleaved yes); made in house; host or cells: E. coli BL21 (DE3) Rosetta (Aurora A); E. coli Bl21 (DE3) (TPX2)
T1 sequence (O14965 122-403): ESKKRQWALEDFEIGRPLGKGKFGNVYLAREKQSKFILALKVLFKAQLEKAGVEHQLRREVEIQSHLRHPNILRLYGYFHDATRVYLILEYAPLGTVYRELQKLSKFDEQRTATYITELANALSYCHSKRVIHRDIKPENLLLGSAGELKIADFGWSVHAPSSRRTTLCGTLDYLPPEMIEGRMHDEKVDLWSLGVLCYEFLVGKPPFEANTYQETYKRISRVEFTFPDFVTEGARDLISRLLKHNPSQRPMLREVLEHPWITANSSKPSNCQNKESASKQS
Description: TPX2 was labelled using the Monolith NT.115 protein labelling kit RED (NanoTemper Technologies). The labelling was performed according to the manufacturer's instructions in the supplied labelling buffer applying a concentration of 44 μM peptide at room temperature for 30 min. Labelled TPX2 was adjusted to 400 nM with final buffer and 0.05% Tween-20 (NanoTemper Technologies). Aurora A kinase with or without ligand was dissolved in final buffer supplemented with 0.05% Tween-20, and a series of 12 dilutions (1:1) was prepared in the identical buffer, keeping the DMSO/ligand concentration constant (final concentrations 0.5% and 125 μM, respectively). Final protein concentrations were between 4.4 nM and 150 μM. […] Thermophoresis was measured at room temperature with 5 s/30 s/5 s laser off/on/off times. […] Data of three independent measurements were analyzed (NT.Analysis software, version 1.5.41, NanoTemper Technologies) using the thermophoresis signal after 10 sec. Points measured above 4.7 μM Aurora A were rejected.

Aurora A bound to TPX2 = target: T2, Aurora A bound to TPX2 (Homo sapiens, UniProt O14965); test: Aurora A kinase activity and inhibition in the presence of TPX2; type: biochemical; conditions: TPX2 present
T2 construct: human Aurora A kinase domain (residues 122-403 in the pET24-d vector); His-tag (cleaved yes); made in house; host or cells: E. coli
T2 sequence (O14965 122-403): T1 sequence (O14965 122-403)
Description: Aurora A and AuroraB kinases were assayed using the homogeneous time-resolved fluorescence (HTRF) KinEASE STK2 kit from Cisbio (France). […] For both enzymes, the reactions were run for 30 min at room temperature and stopped by the addition of 10 μL of detection buffer containing EDTA, antiphospho-Ser/Thr antibody labelled with europium cryptate, and XL-665 conjugated streptavidin (62.5 nM final concentration). After incubation at room temperature for one hour, fluorescence was measured at 620 nm (europium cryptate) and 665 nm (XL-665) after excitation at 317 nm (lag time 60 μs, integration time 500 μs) using a Tecan Infinite M1000 PRO microplate reader (Greiner 384-well plates, white, non-binding, small volume). The ratio of fluorescence (665 nm/620 nm) was calculated for each well and the results were expressed as follows: specific signal=ratio (sample)−ratio (negative control), where ratio=665 nm/620 nm×10^4. […] Each concentration was measured in duplicates, and two independent determinations were made for each IC50 value. IC50 curves were generated using a four-parameter logistic model (XLfit from IDBS).

IC50 (pThr288 Aurora A): 760 nM
binding of Aurora to labeled TPX2 1-43 in the presence of inhibitor (Aurora A / TPX2 (1-43)): abolished
IC50 (Aurora A bound to TPX2): 1400 nM
SMILES: CCc1ccc(N=C2SC(=Cc3ccnc(Nc4ccc(C(=O)O)cn4)c3)C(=O)N2C)cc1 [Compound 9]
